Measured values: paper PMC4151520 (Journal of medicinal chemistry, 2011)
Blank lines part the entries; values can stand above or below the molecule they belong to.

How the values were obtained:
[1] = room temperature, 2 weeks
[2] = target: hLRH-1 LBD alone (no lipid added) (Homo sapiens, UniProt O00482); experiment: Native gel; format: binding; details: doses up to 100 µM
[3] = Solubility; format: physicochemical
[4] = target: mouse SF-1 (Mus musculus, UniProt P33242); experiment: RT-qPCR of endogenous target genes in HEK293 cells stably expressing SF-1; format: cell-based; details: 10 µM, 24 h, relative to DMSO
Chain of mouse SF-1 (P33242 whole entry): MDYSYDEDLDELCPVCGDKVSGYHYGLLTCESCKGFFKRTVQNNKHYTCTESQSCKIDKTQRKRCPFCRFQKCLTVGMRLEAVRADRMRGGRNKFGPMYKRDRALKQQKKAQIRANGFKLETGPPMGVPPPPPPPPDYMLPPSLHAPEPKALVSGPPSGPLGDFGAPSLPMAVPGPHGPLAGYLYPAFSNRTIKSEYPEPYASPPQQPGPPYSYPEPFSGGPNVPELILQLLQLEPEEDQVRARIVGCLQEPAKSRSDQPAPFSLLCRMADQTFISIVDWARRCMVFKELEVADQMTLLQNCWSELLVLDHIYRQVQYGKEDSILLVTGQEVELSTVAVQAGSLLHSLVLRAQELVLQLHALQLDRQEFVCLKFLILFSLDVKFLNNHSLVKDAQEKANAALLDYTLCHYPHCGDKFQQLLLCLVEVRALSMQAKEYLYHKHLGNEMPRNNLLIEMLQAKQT

[5] = target: hLRH-1 (Homo sapiens, UniProt O00482); experiment: RT-qPCR of endogenous target genes in HEK293 cells stably expressing hLRH-1; format: cell-based; details: 10 µM, 24 h
Chain of hLRH-1 (O00482 whole entry): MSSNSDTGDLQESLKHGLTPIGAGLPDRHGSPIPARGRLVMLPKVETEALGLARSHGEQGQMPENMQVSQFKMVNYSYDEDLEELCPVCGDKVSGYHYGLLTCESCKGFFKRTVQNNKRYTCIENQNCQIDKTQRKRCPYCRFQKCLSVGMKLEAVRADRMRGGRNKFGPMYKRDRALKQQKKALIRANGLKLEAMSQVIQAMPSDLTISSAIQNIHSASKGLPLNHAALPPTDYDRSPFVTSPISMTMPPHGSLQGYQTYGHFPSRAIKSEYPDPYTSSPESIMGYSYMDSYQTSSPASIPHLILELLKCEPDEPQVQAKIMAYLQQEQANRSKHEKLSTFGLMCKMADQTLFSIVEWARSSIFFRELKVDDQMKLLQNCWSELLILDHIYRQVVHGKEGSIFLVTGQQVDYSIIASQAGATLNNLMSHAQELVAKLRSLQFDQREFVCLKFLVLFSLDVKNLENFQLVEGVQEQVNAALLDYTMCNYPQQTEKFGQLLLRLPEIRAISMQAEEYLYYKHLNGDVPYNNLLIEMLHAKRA

[6] = test system: H295R cell line; details: cited from earlier work
[7] = test system: SW-13 cell line; details: cited from earlier work
[8] = test system: LRH-1; details: cited from earlier work
[9] = test system: SF-1; details: read-out: IC50 inverse agonist of SF-1; cited from earlier work
[10] = target: human LRH-1 ligand binding domain, labeled with biotin (human, UniProt O00482 300-541, biotin (site not stated)); experiment: FRET or BRET
Chain of human LRH-1 ligand binding domain, labeled with biotin (O00482 300-541): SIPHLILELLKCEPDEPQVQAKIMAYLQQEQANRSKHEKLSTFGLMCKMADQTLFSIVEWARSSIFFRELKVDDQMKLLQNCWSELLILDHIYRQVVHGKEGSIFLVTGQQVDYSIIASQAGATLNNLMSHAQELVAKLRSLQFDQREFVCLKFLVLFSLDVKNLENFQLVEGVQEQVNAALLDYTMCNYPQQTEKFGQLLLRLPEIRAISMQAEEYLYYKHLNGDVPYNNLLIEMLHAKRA

Chain of hLRH-1 LBD alone (no lipid added) (O00482 300-539 limits assumed): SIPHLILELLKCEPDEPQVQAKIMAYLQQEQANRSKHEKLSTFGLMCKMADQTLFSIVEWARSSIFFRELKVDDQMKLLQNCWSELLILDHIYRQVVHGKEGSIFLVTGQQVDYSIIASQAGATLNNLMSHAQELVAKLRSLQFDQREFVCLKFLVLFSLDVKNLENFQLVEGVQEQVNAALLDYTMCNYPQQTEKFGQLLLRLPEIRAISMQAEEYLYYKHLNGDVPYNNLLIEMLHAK

- stability in CDCl3 in the presence of daylight [1]: stable
Molecule: C=C(c1ccccc1)[C@@]12CCC[C@@H]1CC(CCCCCC)=C2c1ccccc1 (racemic) [Compound 18a, rac-(1R,5R)-3-Hexyl-2-phenyl-1-(1-phenylvinyl)-bicyclo[3.3.0]oc-t-2-ene]

- solubility, in words [3]: very poor solubility in aqueous media
Molecule: C=C(CCCC)[C@@]12CCC[C@@H]1CC(CCCCCC)=C2c1ccccc1 (racemic) [Compound 18j, rac-(1R,5R)-1-(Hex-1-en-2-yl)-3-hexyl-2-phenyl-bicyclo[3.3.0]oct-2-ene]
- shift in hLRH-1 LBD native PAGE migration [2]: does not appear competent to shift hLRH-1 LBD migration

Molecule: C=C(c1ccccc1)[C@@]12CCC[C@@H]1CC(CCCCCC)=C2CCCO (racemic) [Compound 18s, rac-(1R,5R)-3-Hexyl-1-(phenylvinyl)-2-(propan-3-ol)-bicyclo[3.-3.0]oct-2-ene]
- shift in hLRH-1 LBD native PAGE migration [2]: can consistently shift hLRH-1 LBD migration in this native gel assay, albeit with reduced potency as compared to 24-exo

- solubility, in words [3]: improved solubility
- SF-1-mediated transcription of endogenous SHP, StAR, G0S2 and MeOX1 target genes [4]: significantly activate
- LRH-1 transcription of the SHP and MeOx1 genes [5]: failed to activate
- LRH-1 transcription of the StAR and G0S2 genes [5]: activated
Molecule: C=C(c1ccccc1)[C@@]12CN(C)C[C@@H]1CC(CCCCCC)=C2c1ccccc1 (racemic) [Compound 20a]

Molecule: C=C(c1ccccc1)[C@@]12CC[C@@H](O)[C@@H]1CC(CCCCCC)=C2c1ccccc1 (racemic) [Compound 24-exo, rac-(1R,5R,6R)-3-Hexyl-6-hydroxy-2-phenyl-1-(phenylvinyl)-bicyclo[3.3.0]oct-2-ene]
- solubility, in words [3]: reasonable solubility in polar solvents
- SF-1-mediated transcription of endogenous SHP, StAR, G0S2 and MeOX1 target genes [4]: significantly activate

Molecule: CCCCCCCOc1ccc(O)cc1 [Compound 8, p-heptyloxyphenol]
- proliferation of H295R [6]: inhibit proliferation
- proliferation of SW-13 (SF-1 negative) [7]: had the same effect
- activity against LRH-1 [8]: no activity

Molecule: CCOC(=O)C(C)Oc1cccc2c(=O)n(CC(=O)Nc3ccc(OC)cc3)ccc12 (centres unmarked) [Compound 9]
- doxycycline (DOX) induced proliferation of H295R ([6]; 10 µM): modestly suppressed
- IC50 [9]: 200 nM
- effect on SW-13 (SF-1 negative) ([7]; 10 µM): little effect

- binding result [10]: binds
B1: biotin-labeled peptide derived from TIF-2 amino acids 737-757 (peptide)
peptide: QEPVSPKKKENALLRYLLDKDDTKD
HELM: PEPTIDE1{[O=C1N[C@H]2[C@H](CS[C@H]2CCCCC(=O)[*:2])N1].Q.E.P.V.S.P.K.K.K.E.N.A.L.L.R.Y.L.L.D.K.D.D.T.K.D.[am]}$$$$V2.0
SMILES: CC(C)C[C@H](NC(=O)[C@H](C)NC(=O)[C@H](CC(N)=O)NC(=O)[C@H](CCC(=O)O)NC(=O)[C@H](CCCCN)NC(=O)[C@H](CCCCN)NC(=O)[C@H](CCCCN)NC(=O)[C@@H]1CCCN1C(=O)[C@H](CO)NC(=O)[C@@H](NC(=O)[C@@H]1CCCN1C(=O)[C@H](CCC(=O)O)NC(=O)[C@H](CCC(N)=O)NC(=O)CCCC[C@@H]1SC[C@@H]2NC(=O)N[C@@H]21)C(C)C)C(=O)N[C@@H](CC(C)C)C(=O)N[C@@H](CCCNC(=N)N)C(=O)N[C@@H](Cc1ccc(O)cc1)C(=O)N[C@@H](CC(C)C)C(=O)N[C@@H](CC(C)C)C(=O)N[C@@H](CC(=O)O)C(=O)N[C@@H](CCCCN)C(=O)N[C@@H](CC(=O)O)C(=O)N[C@@H](CC(=O)O)C(=O)N[C@H](C(=O)N[C@@H](CCCCN)C(=O)N[C@@H](CC(=O)O)C(N)=O)[C@@H](C)O
